Source: ChEMBL document CHEMBL1201862, “PubChem BioAssay data set” (2004)
Each block holds one compound with its values, some of them ahead of it. The source made the active and inactive calls.

How the values were obtained:
[1] = target: Cytochrome P450 2C19 (Homo sapiens, UniProt P33261); experiment: Cytochrome panel assay with activity outcomes. Panel member name: p450-cyp2c19 Compounds with AC50 equal or less than 10 uM are considered active; assay type: functional; settings: read-out: AC50
[2] = target: Cytochrome P450 2C9 (Homo sapiens, UniProt P11712)
Cytochrome P450 2C9, sequence (P11712 whole entry): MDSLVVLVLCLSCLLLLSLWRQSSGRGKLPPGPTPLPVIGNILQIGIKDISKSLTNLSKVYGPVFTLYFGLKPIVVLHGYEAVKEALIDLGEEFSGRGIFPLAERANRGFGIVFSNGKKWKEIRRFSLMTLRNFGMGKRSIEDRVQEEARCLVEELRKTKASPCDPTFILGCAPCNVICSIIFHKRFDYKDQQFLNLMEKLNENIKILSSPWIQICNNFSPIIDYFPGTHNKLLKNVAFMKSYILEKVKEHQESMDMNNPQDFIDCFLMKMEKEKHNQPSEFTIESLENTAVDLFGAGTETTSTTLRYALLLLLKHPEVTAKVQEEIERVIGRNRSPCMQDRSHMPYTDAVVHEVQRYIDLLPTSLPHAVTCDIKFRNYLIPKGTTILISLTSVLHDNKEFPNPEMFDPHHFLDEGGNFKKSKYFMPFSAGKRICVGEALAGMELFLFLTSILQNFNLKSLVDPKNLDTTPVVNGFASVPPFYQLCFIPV

[3] = target: Cytochrome P450 2D6 (Homo sapiens, UniProt P10635);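 also: CYP2D6 member of a cytochrome P450 panel assay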
Cytochrome P450 2D6, sequence (P10635 whole entry, the tested form may be a part): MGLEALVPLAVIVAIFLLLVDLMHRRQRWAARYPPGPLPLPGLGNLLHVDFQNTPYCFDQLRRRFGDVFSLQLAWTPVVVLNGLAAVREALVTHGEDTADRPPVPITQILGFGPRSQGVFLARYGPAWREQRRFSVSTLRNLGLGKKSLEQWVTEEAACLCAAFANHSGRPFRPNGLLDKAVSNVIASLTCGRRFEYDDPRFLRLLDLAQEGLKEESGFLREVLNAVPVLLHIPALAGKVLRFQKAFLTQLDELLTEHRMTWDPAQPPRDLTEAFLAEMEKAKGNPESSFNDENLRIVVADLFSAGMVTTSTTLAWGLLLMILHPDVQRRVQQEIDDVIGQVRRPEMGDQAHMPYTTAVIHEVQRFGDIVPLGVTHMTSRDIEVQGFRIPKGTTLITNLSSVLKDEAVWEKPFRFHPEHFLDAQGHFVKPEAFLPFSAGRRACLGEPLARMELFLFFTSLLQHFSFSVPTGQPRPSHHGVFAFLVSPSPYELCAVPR

[4] = target: T1, RNA-binding protein pos-1 (Caenorhabditis elegans, UniProt G5EF15); experiment: disruptors of C. elegans POS-1 RNA interaction – biochemical, fluorescence polarization, dose response (AID 1964);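 also: purified POS-1 fused to maltose binding protein made in E. coli; potency of compounds blocking POS-1 binding to fluorescent RNA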
T1 sequence (G5EF15 whole entry): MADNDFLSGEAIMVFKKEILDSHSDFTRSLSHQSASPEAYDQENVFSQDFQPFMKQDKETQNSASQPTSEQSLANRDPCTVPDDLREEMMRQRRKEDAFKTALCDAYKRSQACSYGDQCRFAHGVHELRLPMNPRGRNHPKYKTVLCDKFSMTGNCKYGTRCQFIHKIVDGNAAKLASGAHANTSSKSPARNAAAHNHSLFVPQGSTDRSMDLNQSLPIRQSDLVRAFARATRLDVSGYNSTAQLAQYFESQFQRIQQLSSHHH

[5] = target: T2, Zinc finger protein mex-5 (Caenorhabditis elegans, UniProt Q9XUB2); experiment: potency of MEX-5 RNA-binding blockers – biochemical, C. elegans, fluorescence polarization, dose response (AID 1960)
T2 sequence (Q9XUB2 whole entry): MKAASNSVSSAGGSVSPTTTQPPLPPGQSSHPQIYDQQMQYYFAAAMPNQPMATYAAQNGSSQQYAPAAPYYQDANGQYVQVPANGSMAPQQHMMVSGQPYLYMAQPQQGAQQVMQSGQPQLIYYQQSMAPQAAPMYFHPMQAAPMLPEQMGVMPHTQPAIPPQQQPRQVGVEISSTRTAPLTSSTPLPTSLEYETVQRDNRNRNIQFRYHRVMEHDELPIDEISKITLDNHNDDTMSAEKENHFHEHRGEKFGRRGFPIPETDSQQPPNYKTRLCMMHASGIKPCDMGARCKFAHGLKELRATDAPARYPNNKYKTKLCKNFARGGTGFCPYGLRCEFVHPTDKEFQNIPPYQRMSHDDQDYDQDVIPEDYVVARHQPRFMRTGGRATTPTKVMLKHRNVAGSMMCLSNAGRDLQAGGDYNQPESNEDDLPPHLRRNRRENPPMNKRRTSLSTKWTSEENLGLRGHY

[6] = target: T3, Intestinal-type alkaline phosphatase (Mus musculus, UniProt P24822); experiment: PubChem AID 488874; assay type: functional
T3 sequence (P24822 whole entry): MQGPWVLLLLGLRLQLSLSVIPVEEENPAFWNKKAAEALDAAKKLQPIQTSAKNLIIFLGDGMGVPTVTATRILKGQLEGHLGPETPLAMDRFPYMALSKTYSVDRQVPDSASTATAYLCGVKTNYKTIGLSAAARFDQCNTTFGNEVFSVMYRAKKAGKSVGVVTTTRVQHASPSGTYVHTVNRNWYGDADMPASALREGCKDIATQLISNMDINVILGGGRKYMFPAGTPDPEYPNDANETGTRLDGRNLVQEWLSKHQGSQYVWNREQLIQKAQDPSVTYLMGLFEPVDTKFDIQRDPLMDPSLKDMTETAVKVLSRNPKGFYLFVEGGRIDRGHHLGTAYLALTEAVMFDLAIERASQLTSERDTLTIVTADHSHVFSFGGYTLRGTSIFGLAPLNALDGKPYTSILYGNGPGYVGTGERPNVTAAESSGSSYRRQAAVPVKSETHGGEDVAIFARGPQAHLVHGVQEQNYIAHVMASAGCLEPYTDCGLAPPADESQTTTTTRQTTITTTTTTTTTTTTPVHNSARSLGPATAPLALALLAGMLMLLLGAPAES

[7] = target: T4, Intestinal-type alkaline phosphatase (Homo sapiens, UniProt P09923); experiment: inhibition of human intestinal alkaline phosphatase – biochemical, luminescent, uHTS hits, set 2, dose response (AID 488793); assay type: functional
T4 sequence (P09923 whole entry): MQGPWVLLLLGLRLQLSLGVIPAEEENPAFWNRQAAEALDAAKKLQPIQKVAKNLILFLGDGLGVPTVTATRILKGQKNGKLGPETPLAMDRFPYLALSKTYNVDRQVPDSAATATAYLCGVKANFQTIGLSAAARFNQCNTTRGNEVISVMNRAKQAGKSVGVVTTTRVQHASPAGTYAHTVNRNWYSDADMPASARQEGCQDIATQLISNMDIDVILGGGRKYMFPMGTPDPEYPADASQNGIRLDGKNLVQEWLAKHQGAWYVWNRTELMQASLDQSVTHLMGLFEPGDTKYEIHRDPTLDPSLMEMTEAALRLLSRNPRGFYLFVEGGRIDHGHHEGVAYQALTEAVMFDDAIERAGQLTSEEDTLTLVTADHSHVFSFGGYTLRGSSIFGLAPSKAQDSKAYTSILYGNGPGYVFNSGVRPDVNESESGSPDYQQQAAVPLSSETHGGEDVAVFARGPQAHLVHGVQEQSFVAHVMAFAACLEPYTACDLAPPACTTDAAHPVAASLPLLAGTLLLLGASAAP

[8] = target: T4, Intestinal-type alkaline phosphatase; experiment: Dose Response confirmation of uHTS hits from a small molecule inhibitors of human intestinal alkaline phosphatase via a luminescent assay. [Related pubchem assays (depositor defined):AID2544, AID2574]; assay type: functional
[9] = target: T4, Intestinal-type alkaline phosphatase; experiment: activation of human intestinal alkaline phosphatase – biochemical, dose response (AID 488873); assay type: functional
[10] = target: T3, Intestinal-type alkaline phosphatase; experiment: PubChem AID 488785; assay type: functional
[11] = target: Alkaline phosphatase, placental type (Homo sapiens, UniProt P05187); experiment: human placental alkaline phosphatase inhibition – biochemical, luminescence, confirmation (AID 1512); assay type: functional
Alkaline phosphatase, placental type, sequence (P05187 whole entry): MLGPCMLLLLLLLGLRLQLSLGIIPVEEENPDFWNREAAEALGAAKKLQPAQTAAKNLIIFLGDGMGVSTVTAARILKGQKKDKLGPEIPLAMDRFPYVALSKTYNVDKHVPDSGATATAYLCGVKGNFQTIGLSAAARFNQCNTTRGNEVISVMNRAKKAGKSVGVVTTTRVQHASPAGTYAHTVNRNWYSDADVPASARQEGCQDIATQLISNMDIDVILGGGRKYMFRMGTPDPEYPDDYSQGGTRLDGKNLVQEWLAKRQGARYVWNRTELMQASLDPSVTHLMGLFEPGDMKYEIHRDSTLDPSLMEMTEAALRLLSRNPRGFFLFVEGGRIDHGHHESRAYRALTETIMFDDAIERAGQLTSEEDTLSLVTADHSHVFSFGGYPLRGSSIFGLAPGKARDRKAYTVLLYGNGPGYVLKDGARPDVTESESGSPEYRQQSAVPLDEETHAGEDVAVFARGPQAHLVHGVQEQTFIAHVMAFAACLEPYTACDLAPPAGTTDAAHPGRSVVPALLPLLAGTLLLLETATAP

[12] = target: T5, Alkaline phosphatase, tissue-nonspecific isozyme (Homo sapiens, UniProt P05186); experiment: potency against alkaline phosphatase TNAP – biochemical, luminescent, dose response, SAR follow-up (AID 1056)
T5 sequence (P05186 whole entry): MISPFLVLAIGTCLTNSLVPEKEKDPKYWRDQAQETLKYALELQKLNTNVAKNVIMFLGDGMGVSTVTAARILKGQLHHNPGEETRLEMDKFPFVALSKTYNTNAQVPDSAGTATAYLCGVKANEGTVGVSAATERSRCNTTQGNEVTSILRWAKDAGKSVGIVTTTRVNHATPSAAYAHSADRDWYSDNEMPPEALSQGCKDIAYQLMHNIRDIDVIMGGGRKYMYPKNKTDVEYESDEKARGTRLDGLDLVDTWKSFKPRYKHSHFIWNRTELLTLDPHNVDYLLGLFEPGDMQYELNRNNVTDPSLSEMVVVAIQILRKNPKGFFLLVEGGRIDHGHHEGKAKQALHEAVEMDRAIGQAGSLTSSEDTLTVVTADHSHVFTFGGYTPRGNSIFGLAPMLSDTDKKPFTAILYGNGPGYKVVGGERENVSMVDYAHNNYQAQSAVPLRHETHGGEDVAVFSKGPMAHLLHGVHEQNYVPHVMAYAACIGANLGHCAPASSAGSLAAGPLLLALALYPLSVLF

[13] = target: T5, Alkaline phosphatase, tissue-nonspecific isozyme; experiment: TNAP enzyme inhibition by screening hits, dose response, selectivity assay for mouse IAP inhibitor project, biochemical, human TNAP, uHTS hits (AID 488906); assay type: functional
[14] = target: T5, Alkaline phosphatase, tissue-nonspecific isozyme; experiment: activation of tissue-nonspecific alkaline phosphatase – biochemical, TNAP isozyme, human IAP uHTS hits, selectivity assay for human IAP activator project, dose response (AID 488886); assay type: functional;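 also: potency of compounds raising TNAP activity as a selectivity check on IAP activators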
[15] = target: Lysine-specific demethylase 4C (Homo sapiens, UniProt Q9H3R0); experiment: inhibition of JMJD2C H3K9me3 demethylation – biochemical, DELFIA europium, cherry-picked samples, dose response (AID 488835); assay type: functional
Lysine-specific demethylase 4C, sequence (Q9H3R0 whole entry): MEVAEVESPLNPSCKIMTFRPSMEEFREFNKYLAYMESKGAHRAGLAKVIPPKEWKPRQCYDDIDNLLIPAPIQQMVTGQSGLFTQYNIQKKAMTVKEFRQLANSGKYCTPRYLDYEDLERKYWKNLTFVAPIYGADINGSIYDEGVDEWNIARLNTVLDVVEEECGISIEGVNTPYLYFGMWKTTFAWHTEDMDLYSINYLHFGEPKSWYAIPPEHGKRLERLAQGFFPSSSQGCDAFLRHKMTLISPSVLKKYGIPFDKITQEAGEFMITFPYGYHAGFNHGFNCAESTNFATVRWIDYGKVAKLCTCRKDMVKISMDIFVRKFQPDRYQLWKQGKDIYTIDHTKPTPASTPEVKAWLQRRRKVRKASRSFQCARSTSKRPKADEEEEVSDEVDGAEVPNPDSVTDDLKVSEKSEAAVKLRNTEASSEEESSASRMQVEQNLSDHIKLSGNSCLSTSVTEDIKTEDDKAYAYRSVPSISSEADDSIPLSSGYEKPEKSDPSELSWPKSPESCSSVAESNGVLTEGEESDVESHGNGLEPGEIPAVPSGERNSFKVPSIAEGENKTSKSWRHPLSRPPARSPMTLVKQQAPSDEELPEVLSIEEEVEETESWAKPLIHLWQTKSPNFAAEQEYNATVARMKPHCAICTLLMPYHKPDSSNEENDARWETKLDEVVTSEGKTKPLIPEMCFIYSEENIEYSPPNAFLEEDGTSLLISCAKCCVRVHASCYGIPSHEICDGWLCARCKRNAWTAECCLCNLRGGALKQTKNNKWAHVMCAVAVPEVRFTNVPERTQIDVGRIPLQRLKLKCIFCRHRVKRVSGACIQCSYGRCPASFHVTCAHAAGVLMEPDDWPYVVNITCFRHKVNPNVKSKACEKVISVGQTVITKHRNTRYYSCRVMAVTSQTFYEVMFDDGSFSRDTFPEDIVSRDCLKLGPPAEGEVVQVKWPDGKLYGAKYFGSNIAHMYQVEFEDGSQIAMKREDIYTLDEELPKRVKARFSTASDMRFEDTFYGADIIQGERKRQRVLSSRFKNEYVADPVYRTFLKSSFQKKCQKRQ

Cytochrome P450 2C19, sequence (P33261 whole entry): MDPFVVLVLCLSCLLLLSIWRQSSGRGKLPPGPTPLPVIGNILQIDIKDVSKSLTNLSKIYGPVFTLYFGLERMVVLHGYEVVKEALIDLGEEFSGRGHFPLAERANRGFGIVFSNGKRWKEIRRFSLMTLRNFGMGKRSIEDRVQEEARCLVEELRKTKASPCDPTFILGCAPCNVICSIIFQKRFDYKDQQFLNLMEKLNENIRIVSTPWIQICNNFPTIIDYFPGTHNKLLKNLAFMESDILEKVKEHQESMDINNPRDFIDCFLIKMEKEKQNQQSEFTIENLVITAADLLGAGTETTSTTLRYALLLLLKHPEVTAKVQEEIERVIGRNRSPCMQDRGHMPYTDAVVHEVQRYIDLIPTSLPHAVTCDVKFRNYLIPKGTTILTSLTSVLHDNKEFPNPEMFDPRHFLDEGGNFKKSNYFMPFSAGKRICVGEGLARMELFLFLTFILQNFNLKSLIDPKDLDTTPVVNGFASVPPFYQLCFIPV

AC50 [1]: 0.631 µM (inconclusive)
AC50 [2]: 1.41 µM (inconclusive)
AC50 [3]: inconclusive
Compound: CCCOc1ccc(/C=C/C(=O)Nc2ccc([N+](=O)[O-])cc2C)cc1

EC50 [4]: > 300 µM (not active)
EC50 [5]: > 300 µM (not active)
IC50 [6]: 5.83 µM (active)
IC50 [7]: 1.29 µM (active)
IC50 [8]: 1.76 µM (active)
EC50 [9]: > 100 µM (inactive)
IC50 [10]: 1.53 µM (active)
IC50 [11]: 5.81 µM (active)
IC50 [12]: > 100 µM (inactive)
IC50 [13]: 25.8 µM (active)
EC50 [14]: > 100 µM (inactive)
Compound: CNc1nnc(-c2cc3ccccc3oc2=O)s1

AC50 [15]: 20.1 µM (active)
Compound: O=C(Nc1cc(S(=O)(=O)N2CCOCC2)ccc1N1CCCC1)c1ccc(F)cc1
